From ChEMBL document CHEMBL4138277, “Lipovelutibols A-D: Cytotoxic Lipopeptaibols from the Himalayan Cold Habitat Fungus Trichoderma velutinum” (J Nat Prod, 2018)
Non-standard residues stand in square brackets, D forms with d. Residues, ends and D or L forms follow the SMILES beside them. *: point of attachment. Leu(ol) = CC(C)C[C@H](N)CO; dIva = CC[C@@](C)(N)C(=O)O; Octanoyl = CCCCCCCC(=O)*; Aib = CC(C)(N)C(=O)O

Legend:
Format in all cases: functional, cell-based
MDA-MB-231 = assay: Cytotoxicity against human MDA-MB-231 cells after 48 hrs by MTT assay; details: MDA-MB-231, 48 h
HL-60 = assay: Cytotoxicity against human HL60 cells after 48 hrs by MTT assay; details: HL-60, 48 h
A549 = assay: Cytotoxicity against human A549 cells after 48 hrs by MTT assay; details: A549, 48 h
LS180 = assay: Cytotoxicity against human LS180 cells after 48 hrs by MTT assay; details: LS180, 48 h

Structure (SMILES): CCCCCCCC(=O)NCC(=O)N[C@@H](C)C(=O)N[C@@H](CC(C)C)C(=O)N[C@](C)(CC)C(=O)N[C@@H](CO)C(=O)N[C@H](C(=O)N[C@H](CO)CC(C)C)[C@@H](C)CC
- IC50 (MDA-MB-231): 4 µM
- IC50 (HL-60): 2 µM
- IC50 (A549): 30 µM
- IC50 (LS180): > 30 µM

Structure (SMILES): CCCCCCCC(=O)NCC(=O)N[C@@H](C)C(=O)N[C@@H](CC(C)C)C(=O)NC(C)(C)C(=O)N[C@@H](C)C(=O)N[C@H](C(=O)N[C@H](CO)CC(C)C)[C@@H](C)CC (Octanoyl-GAL[Aib]AI[Leu(ol)])
- IC50 (MDA-MB-231): 16 µM
- IC50 (HL-60): 16 µM
- IC50 (A549): 17 µM
- IC50 (LS180): > 30 µM

Structure (SMILES): CCCCCCCC(=O)NCC(=O)N[C@@H](C)C(=O)N[C@@H](CC(C)C)C(=O)NC(C)(C)C(=O)N[C@@H](CO)C(=O)N[C@H](C(=O)N[C@H](CO)CC(C)C)[C@@H](C)CC (Octanoyl-GAL[Aib]SI[Leu(ol)])
- IC50 (MDA-MB-231): > 30 µM
- IC50 (HL-60): > 30 µM
- IC50 (A549): 30 µM
- IC50 (LS180): > 30 µM

Structure (SMILES): CCCCCCCC(=O)NCC(=O)N[C@@H](C)C(=O)N[C@@H](CC(C)C)C(=O)N[C@](C)(CC)C(=O)N[C@@H](C)C(=O)N[C@H](C(=O)N[C@H](CO)CC(C)C)[C@@H](C)CC (Octanoyl-GAL[dIva]AI[Leu(ol)])
- IC50 (MDA-MB-231): 5 µM
- IC50 (HL-60): 4 µM
- IC50 (A549): 4 µM
- IC50 (LS180): 7 µM

Structure (SMILES): CC(=O)O[C@H]1C(=O)[C@@]2(C)[C@H]([C@H](OC(=O)c3ccccc3)[C@]3(O)C[C@H](OC(=O)[C@H](O)[C@@H](NC(=O)c4ccccc4)c4ccccc4)C(C)=C1C3(C)C)[C@]1(OC(C)=O)CO[C@@H]1C[C@@H]2O [PACLITAXEL]
- IC50 (LS180): 0.0028 µM
